Experimental data reported in US10385050B2, “Indolin-2-one and 1,3-dihydro-pyrrolo[3,2-c]pyridin-2-one derivatives” (Hoffmann-La Roche Inc., priority 2014, dated 2019).
Where a name gives a salt, the structure may show the parent alone.

tested on: L-687,414-induced hyperlocomotion; experiment: Reversal of L-687,414-induced hyperlocomotion (Digiscan locomotor activity); format: in vivo, mouse; details: Mus musculus, 0.5 h; dose ip 30 mg/kg at the same time as s.c. 50 mg/kg L-687,414; horizontal activity over 30 min
From the text: The authors described that hyperlocomotion induced by L-687,414 was inhibited by a series of known antipsychotic drugs. […] These findings predict antipsychotic activity for the present compounds, making them useful for the treatment of positive (psychosis) and negative symptoms of schizophrenia, substance abuse, alcohol and drug addiction, obsessive-compulsive disorders, cognitive impairment, bipolar disorders, mood disorders, major depression, resistant depression, anxiety disorders, Alzheimer's disease, autism, Parkinson's disease, chronic pain, borderline personality disorder, sleep disturbances, chronic fatigue syndrome, stiffness, antiinflammatory effects in arthritis and balance problems.
The described compounds of formula I reduce L-687,414-induced hyperlocomotion. This was assessed by using a computerized Digiscan 16 Animal Activity Monitoring System (Omnitech Electronics, Columbus, Ohio) to quantify locomotor activity. Animals were kept under a 12 h light/dark cycle and experiments were performed during the light period. Each activity monitoring chamber consisted of a Plexiglas box (41×41×28 cm; W×L×H) with sawdust bedding on the floor surrounded by invisible horizontal and vertical infrared sensor beams. The test boxes were divided by a Plexiglas cross providing each mouse with 20×20 cm of moving space. Cages were connected to a Digiscan Analyzer linked to a computer that constantly collected the beam status information. Records of photocell beam interruptions for individual animals were taken every 5 min over the duration of the experimental session and the sum of the first 6 periods was used as the final parameter. Compounds were administered either p.o. 15 min before a s.c. injection of 50 mg/kg of L-687,414, or i.p. at the same time as a s.c. injection of 50 mg/kg of L-687,414. Mice were then transferred from their home cage to the recording chambers for a 15-min habituation phase allowing free exploration of the new environment. Horizontal activity was then recorded for a 30-min time period. The % inhibition of L-687,414-induced hyperlocomotion was calculated according to the equation: ((Veh+L-687,414 horizontal activity−drug+L-687,414 horizontal activity)/Veh+L−687,414 horizontal activity)×100
ID50 values, defined as doses of each compound producing 50% inhibition of L-687,414-induced hyperlocomotion, were calculated by linear regression analysis of a dose-response data using an Excel-based computer-fitting program.
As data was not presupposed to be normally distributed, groups treated with test compounds were statistically compared with the control (vehicle-treated) group using one-tailed Mann Whitney U tests. In statistics, the Mann-Whitney U test (also called the Mann-Whitney-Wilcoxon (MWW) or Wilcoxon rank-sum test) is a non-parametric statistical hypothesis test for assessing whether one of two samples of independent observations tends to have larger values than the other. It is one of the most well-known non-parametric significance tests. […] P values given in table 1 are one-tailed since only decreases in locomotion were expected and tested for (Mann, H. B., Whitney, D. R. (1947), “On a Test of Whether one of Two Random Variables is Stochastically Larger than the Other”, Annals of Mathematical Statistics, 18 (1), 50-60).

**Q.** Which inhibition in vivo at 30 mg/kg does the source give for `Cc1ccc(-c2ncc(-c3ccc4c(c3)N(C)C(=O)C4(C)C)cn2)cn1` [Example 101, 1,3,3-Trimethyl-6-(2-(6-methylpyridin-3-yl)pyrimidin-5-yl)indolin-2-one] here?
**A.** 78.4%

**Q.** `Cc1ccc(N2C(=O)C(C)(C)c3ccc(-c4cn(-c5ccncc5F)cn4)cc32)cn1` [Example 102, 6-[1-(3-Fluoro-4-pyridyl)imidazol-4-yl]-3,3-dimethyl-1-(6-methyl-3-pyridyl)indolin-2-one] was tested. Which inhibition in vivo at 30 mg/kg did it give?
**A.** 65.6%

**Q.** `Cc1ccc(N2C(=O)C(C)(C)c3ccc(-c4cn(-c5ccnc(C)c5)cn4)cc32)cn1` [Example 104, 3,3-Dimethyl-1-(6-methyl-3-pyridyl)-6-[1-(2-methyl-4-pyridyl)imidazol-4-yl]indolin-2-one] was tested. Which inhibition in vivo at 30 mg/kg did it give?
**A.** 64.8%

**Q.** With `Cc1ccc(N2C(=O)C(C)(C)c3ccc(-c4cn(-c5ccncc5C)cn4)cc32)cn1` [Example 105, 3,3-Dimethyl-1-(6-methyl-3-pyridyl)-6-[1-(3-methyl-4-pyridyl)imidazol-4-yl]indolin-2-one] as the molecule, how does the inhibition in vivo at 30 mg/kg read?
**A.** 40.6%

**Q.** Which inhibition in vivo at 30 mg/kg does the source give for `Cc1cc(N2C(=O)C(C)(C)c3ccc(-c4cn(-c5ccncc5C)cn4)cc32)ccn1` [Example 106, 3,3-Dimethyl-1-(2-methyl-4-pyridyl)-6-[1-(3-methyl-4-pyridyl)imidazol-4-yl]indolin-2-one] here?
**A.** 68.4%

**Q.** With `Cc1cc(-n2cnc(-c3ccc4c(c3)N(c3cn(C)cn3)C(=O)C4(C)C)c2)ccn1` [Example 111, 3,3-Dimethyl-1-(1-methylimidazol-4-yl)-6-[1-(2-methyl-4-pyridyl)imidazol-4-yl]indolin-2-one] as the molecule, how does the inhibition in vivo at 30 mg/kg read?
**A.** 55.1%

**Q.** For `Cc1cc(-n2cnc(-c3ccc4c(c3)N(c3ccn(C)n3)C(=O)C4(C)C)c2)ccn1` [Example 112, 3,3-Dimethyl-1-(1-methylpyrazol-3-yl)-6-[1-(2-methyl-4-pyridyl)imidazol-4-yl]indolin-2-one], which inhibition in vivo at 30 mg/kg is on record?
**A.** 52.5%

**Q.** Which inhibition in vivo at 30 mg/kg does the source give for `Cc1cnccc1-n1cnc(-c2ccc3c(c2)N(c2cn(C)cn2)C(=O)C3(C)C)c1` [Example 114, 3,3-Dimethyl-1-(1-methylimidazol-4-yl)-6-[1-(3-methyl-4-pyridyl)imidazol-4-yl]indolin-2-one] here?
**A.** 64.9%

**Q.** `Cc1cnccc1-n1cnc(-c2ccc3c(c2)N(c2ccn(C)n2)C(=O)C3(C)C)c1` [Example 115, 3,3-Dimethyl-1-(1-methylpyrazol-3-yl)-6-[1-(3-methyl-4-pyridyl)imidazol-4-yl]indolin-2-one] was tested. Which inhibition in vivo at 30 mg/kg did it give?
**A.** 74.1%

**Q.** For `Cc1ncc(N2C(=O)C(C)(C)c3ccc(-c4cn(-c5ccncc5C)cn4)cc32)cn1` [Example 116, 3,3-Dimethyl-6-[1-(3-methyl-4-pyridyl)imidazol-4-yl]-1-(2-methylpyrimidin-5-yl)indolin-2-one], which inhibition in vivo at 30 mg/kg is on record?
**A.** 74.3%

**Q.** Which inhibition in vivo at 30 mg/kg does the source give for `Cc1cnc(-n2cnc(-c3ccc4c(c3)N(C3CC3)C(=O)C4(C)C)c2)nc1` [Example 118, 1-Cyclopropyl-3,3-dimethyl-6-(1-(5-methylpyrimidin-2-yl)-1H-imidazol-4-yl)indolin-2-one] here?
**A.** 50.3%

**Q.** For `Cc1cnc(-n2cnc(-c3ccc4c(c3)N(C)C(=O)C4(C)C)c2)nc1` [Example 119, 1,3,3-Trimethyl-6-(1-(5-methylpyrimidin-2-yl)-1H-imidazol-4-yl)indolin-2-one], which inhibition in vivo at 30 mg/kg is on record?
**A.** 48.1%

**Q.** How did the inhibition in vivo at 30 mg/kg turn out when `Cc1cccc(-n2cnc(-c3ccc4c(c3)NC(=O)C4(C)C)c2)n1` [Example 123, 3,3-Dimethyl-6-(1-(6-methylpyridin-2-yl)-1H-imidazol-4-yl)indolin-2-one] was run?
**A.** 30.6%

**Q.** `CC1(C)C(=O)N(CCO)c2cc(-c3cn(-c4ccncc4F)cn3)ccc21` [Example 130, 6-[1-(3-Fluoro-4-pyridyl)imidazol-4-yl]-1-(2-hydroxyethyl)-3,3-dimethyl-indolin-2-one] was tested. Which inhibition in vivo at 30 mg/kg did it give?
**A.** 74.5%

**Q.** How did the inhibition in vivo at 30 mg/kg turn out when `Cc1cc(-n2cnc(-c3ccc4c(c3)NC(=O)C4(C)C)c2)c(F)cn1` [Example 132, 6-[1-(5-Fluoro-2-methyl-4-pyridyl)imidazol-4-yl]-3,3-dimethyl-indolin-2-one trifluoroacetate] was run?
**A.** 71.1%
